Reference: US8791264B2 (Purdue Pharma L.P., priority 2006, dated 2014)

Tests used:
[1] = target: T1, N-type calcium channel (NTCC) (Homo sapiens, UniProt Q00975); test: FLIPR calcium mobilization assay for N-type calcium channel; type: cell-based; settings: calcium mobilization in vitro assay; differentiated IMR32 cells
T1 construct: host or cells: IMR32 cells differentiated with dibutyryl cAMP and bromodeoxyuridine
Experimental: Unless noted otherwise, cell culture reagents were purchased from Mediatech of Herndon, Md. IMR32 cells (American Type Culture Collection, ATCC, Manassas, Va.) were routinely cultured in growth medium consisting of minimum essential medium containing 10% fetal bovine serum (FBS, Hyclone, Logan, Utah), 100 U/mL penicillin, 100 μg/mL streptomycin, 2 mM L-glutamine, 1 mM sodium pyruvate, and 1× MEM non-essential amino acids. 80-90% confluent flasks of cells were differentiated using the following differentiation medium: Growth medium plus 1 mM dibutyryl cyclic AMP (Sigma, St. Louis, Mo.), and 2.5 μM bromodeoxyuridine (Sigma). Cells were differentiated for 8 days by replacing differentiation medium every 2-3 days.
FLIPR Calcium Mobilization Assay for N-Type Calcium Channel.
One day prior to performing this assay, differentiated IMR32 cells were treated with 1× CellStripper, and seeded on poly-D-lysine-coated 96-well clear-bottom black plates (Becton Dickinson, Franklin Lakes, N.J.) at 200,000 cells/well. On the day of the assay, the cell plates were washed with IMR32 buffer (127 mM NaCl, 1 mM KCl, 2 mM MgCl2, 700 μM NaH2PO4, 5 mM CaCl2, 5 mM NaHCO3, 8 mM HEPES, 10 mM glucose, pH 7.4), then pre-stimulated with KCl and loaded as follows: 0.05 mL of IMR32 buffer, 0.05 mL of each compound tested diluted in IMR32 buffer containing 20 μM nitrendipine (Sigma), and 0.1 mL KCl dissolved in IMR32 buffer, plus Fluo-4 were added (3 μM final concentration, Molecular Probes, Eugene, Oreg.). Final test compound concentrations ranged from about 846 pM to about 17 μM, final nitrendipine concentration was 5 μM, and final KCl concentration was 90 mM. After 1 hour, the cells were washed twice with 0.05 mL of each compound is tested in nitrendipine-containing IMR32 buffer (no KCl or Fluo-4), and then replaced with 0.1 mL of each compound tested in nitrendipine-containing IMR32 buffer. Plates were then transferred to a Fluorimetric Imaging Plate Reader (FLIPR^96, Molecular Devices, Inc., Sunnyvale, Calif.) for assay. The FLIPR measured basal Fluo-4 fluorescence for 315 seconds (i.e., 5 minutes and 15 seconds), then added 0.1 mL KCl agonist dissolved in IMR32 buffer and measured fluorescence for another 45 seconds. Final test compound concentrations on the cells after FLIPR read ranged from about 846 pM to about 17 μM, final nitrendipine concentration was 5 μM, and final KCl concentration was 90 mM. Data were collected over the entire time course and analyzed using Excel, Graph Pad Prism (version 3.02, Graph Pad, San Diego, Calif.), or an in-house non-linear regression analysis software.

[2] = target: T2, recombinant rat L-type calcium channel (LTCC) subunits (α1c, α2δ, and β1) (Rattus norvegicus, UniProt P22002); test: FLIPR calcium mobilization assay for L-type calcium channel; type: cell-based; settings: calcium mobilization in vitro assay; HEK293 cells expressing rat LTCC
T2 construct: expressed in transfected cells
Experimental: Recombinant human embryonal kidney cells (HEK293, ATCC) stably transfected with either N-type calcium channel (NTCC) subunits (α1b, α2δ, and ⊖3) or L-type calcium channel (LTCC) subunits (α1, α2δ, and β1) were routinely cultured in growth medium consisting of Dulbecco's Modified Eagles Medium containing 10% FBS, 100 U/mL penicillin, 100 μg/mL streptomycin, 4 mM L-glutamine, 500 μg/mL geneticin (G418), 20 μg/mL Blasticidin S (InVivogen, San Diego, Calif.) and 500 μg/mL zeocin (InVivogen).
FLIPR Calcium Mobilization Assay for L-Type Calcium Channel.
One day prior to performing this assay, HEK293 cells stably expressing recombinant rat L-type calcium channel (LTCC) subunits (α1c, α2δ, and β1) were trypsinized, then seeded on poly-D-lysine-coated 96-well clear-bottom black plates (Becton Dickinson, Franklin Lakes, N.J.) at 75,000 cells/well. On the day of the assay, the plates were washed with LTCC wash buffer (127 mM NaCl, 2 mM MgCl2, 700 μM NaH2PO4, 5 mM CaCl2, 5 mM NaHCO3, 8 mM HEPES, 10 mM glucose, pH 7.4), then loaded with 0.1 mL of LTCC wash buffer containing Fluo-4 (3 μM final concentration, Molecular Probes, Eugene, Oreg.). After 1 hour, the cells were washed with 0.1 mL LTCC wash buffer and resuspended in 0.05 mL LTCC assay buffer (same composition as LTCC wash buffer). Plates were then transferred to a FLIPR^96 for assay. The FLIPR measured basal Fluo-4 fluorescence for 15 seconds, then is added 0.05 mL of each compound tested diluted in LTCC assay buffer at final concentrations ranging from about 846 pM to about 17 μM. Fluo-4 fluorescence was then measured for 5 minutes. 0.1 mL KCl agonist dissolved in LTCC assay buffer was then added to the cells to produce a final concentration of 90 mM KCl, and fluorescence was measured for another 45 seconds. Data were collected over the entire time course and analyzed using Excel, Graph Pad Prism, or an in-house regression analysis software.

T2 sequence (P22002 whole entry): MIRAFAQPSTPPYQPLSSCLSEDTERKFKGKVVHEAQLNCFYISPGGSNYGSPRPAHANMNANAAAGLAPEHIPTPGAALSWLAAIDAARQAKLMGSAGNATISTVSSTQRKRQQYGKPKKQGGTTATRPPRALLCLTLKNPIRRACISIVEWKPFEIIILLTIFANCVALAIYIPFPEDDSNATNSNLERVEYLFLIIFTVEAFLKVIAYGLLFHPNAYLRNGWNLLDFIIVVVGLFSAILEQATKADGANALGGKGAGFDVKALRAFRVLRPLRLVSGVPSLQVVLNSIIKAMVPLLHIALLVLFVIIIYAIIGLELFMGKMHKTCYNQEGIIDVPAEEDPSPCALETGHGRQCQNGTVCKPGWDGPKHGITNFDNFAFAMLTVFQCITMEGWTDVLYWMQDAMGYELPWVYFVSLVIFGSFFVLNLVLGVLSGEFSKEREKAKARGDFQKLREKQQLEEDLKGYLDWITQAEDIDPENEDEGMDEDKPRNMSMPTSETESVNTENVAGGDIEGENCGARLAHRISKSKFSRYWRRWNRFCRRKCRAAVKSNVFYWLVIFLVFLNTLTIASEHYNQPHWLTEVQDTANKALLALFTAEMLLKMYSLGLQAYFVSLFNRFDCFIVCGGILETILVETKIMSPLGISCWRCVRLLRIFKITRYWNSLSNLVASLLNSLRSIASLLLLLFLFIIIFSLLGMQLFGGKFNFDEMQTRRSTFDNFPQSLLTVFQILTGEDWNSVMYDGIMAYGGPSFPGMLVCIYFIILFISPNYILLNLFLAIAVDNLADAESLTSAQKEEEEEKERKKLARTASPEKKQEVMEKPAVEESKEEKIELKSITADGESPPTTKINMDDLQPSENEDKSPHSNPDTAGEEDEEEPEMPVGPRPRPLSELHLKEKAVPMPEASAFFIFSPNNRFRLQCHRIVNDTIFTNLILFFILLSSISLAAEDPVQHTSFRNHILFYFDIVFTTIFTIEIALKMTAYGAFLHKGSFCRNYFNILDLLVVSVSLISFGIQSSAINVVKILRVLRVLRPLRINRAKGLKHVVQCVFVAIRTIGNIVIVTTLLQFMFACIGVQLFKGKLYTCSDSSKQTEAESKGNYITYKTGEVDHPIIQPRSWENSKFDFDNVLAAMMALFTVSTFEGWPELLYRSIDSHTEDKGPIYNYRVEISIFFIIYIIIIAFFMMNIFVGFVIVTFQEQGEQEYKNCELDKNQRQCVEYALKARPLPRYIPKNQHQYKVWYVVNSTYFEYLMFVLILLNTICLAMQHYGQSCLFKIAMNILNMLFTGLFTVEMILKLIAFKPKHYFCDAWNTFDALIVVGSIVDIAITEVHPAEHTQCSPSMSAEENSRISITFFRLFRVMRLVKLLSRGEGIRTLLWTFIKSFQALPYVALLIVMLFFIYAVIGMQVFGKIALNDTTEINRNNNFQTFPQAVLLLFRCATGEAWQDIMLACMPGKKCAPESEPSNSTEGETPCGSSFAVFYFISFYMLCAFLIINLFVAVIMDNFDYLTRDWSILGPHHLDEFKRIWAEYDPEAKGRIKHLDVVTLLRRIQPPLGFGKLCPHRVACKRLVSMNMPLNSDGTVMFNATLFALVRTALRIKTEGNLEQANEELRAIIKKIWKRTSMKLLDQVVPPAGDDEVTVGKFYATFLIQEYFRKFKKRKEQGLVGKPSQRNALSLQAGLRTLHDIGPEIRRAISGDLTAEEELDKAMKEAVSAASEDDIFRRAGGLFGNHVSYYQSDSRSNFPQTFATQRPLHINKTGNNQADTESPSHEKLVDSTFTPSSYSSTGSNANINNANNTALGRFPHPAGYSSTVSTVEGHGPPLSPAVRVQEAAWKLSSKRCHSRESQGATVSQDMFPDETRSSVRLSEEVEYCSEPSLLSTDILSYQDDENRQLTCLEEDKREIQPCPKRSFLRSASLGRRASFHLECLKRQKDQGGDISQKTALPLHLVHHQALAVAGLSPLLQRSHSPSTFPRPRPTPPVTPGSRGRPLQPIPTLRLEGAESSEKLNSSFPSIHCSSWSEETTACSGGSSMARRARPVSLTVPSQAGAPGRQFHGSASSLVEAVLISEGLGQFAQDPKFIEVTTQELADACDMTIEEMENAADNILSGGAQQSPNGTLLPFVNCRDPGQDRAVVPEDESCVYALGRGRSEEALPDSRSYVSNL
T2 sequence (P54290 25-944 partner limits assumed): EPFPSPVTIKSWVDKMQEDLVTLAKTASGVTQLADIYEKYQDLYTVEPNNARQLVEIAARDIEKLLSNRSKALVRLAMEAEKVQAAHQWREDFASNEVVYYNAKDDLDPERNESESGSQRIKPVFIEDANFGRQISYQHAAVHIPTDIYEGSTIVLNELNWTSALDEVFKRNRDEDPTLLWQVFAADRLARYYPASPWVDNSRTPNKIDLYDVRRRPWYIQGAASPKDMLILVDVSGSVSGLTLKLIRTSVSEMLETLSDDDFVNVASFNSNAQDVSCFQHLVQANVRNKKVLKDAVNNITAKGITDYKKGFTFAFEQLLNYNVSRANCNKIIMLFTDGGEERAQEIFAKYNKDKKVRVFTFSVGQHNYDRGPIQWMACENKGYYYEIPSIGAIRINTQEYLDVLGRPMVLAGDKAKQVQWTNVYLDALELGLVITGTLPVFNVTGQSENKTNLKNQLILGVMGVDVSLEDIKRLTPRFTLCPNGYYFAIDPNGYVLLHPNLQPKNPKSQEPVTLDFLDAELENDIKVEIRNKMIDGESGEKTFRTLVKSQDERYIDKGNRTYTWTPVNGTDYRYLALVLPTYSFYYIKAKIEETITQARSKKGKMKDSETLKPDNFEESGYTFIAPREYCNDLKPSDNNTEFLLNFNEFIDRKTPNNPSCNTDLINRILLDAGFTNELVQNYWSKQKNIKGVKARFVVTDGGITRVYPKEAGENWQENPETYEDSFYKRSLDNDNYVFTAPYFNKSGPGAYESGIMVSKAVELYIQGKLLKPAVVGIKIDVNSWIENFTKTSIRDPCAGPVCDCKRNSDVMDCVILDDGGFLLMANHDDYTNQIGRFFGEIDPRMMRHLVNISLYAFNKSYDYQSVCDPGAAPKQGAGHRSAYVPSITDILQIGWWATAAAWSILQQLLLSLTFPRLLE
T2 sequence (P54290 945-1091 partner limits assumed): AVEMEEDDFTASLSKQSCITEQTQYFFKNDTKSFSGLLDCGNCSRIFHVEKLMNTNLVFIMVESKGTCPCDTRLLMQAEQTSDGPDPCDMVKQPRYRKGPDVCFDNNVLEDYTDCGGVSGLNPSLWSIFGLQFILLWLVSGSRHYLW
T2 sequence (P54283 whole entry partner): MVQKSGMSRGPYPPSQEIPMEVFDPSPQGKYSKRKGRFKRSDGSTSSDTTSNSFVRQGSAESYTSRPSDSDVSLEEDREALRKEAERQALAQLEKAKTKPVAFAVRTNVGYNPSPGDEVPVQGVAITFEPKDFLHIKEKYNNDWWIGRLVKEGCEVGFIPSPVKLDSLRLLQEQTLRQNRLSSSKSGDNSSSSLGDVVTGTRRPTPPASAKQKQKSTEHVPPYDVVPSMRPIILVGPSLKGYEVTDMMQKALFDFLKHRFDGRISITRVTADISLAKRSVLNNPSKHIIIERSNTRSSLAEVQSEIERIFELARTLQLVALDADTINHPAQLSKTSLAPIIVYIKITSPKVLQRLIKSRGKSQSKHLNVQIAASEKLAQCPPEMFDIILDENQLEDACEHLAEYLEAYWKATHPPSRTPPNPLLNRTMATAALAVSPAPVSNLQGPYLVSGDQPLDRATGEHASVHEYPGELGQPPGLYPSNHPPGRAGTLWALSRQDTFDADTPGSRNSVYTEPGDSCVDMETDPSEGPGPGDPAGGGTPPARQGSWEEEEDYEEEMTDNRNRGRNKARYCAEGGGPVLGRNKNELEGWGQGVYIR

| Structure (SMILES) | IC50 [1] [nM] | IC50 [2] [nM] |
| --- | --- | --- |
| O=C(CC(=O)N1CCC(N(C2CC2)S(=O)(=O)c2cccc(C(F)(F)F)c2)CC1)Nc1ccc(F)cc1 [Compound 26, 3-{4-[Cyclopropyl-(3-trifluoromethylbenzenesulfonyl)amino]-piperidin-1-yl}-N-(4-fluorophenyl)-3-oxo-propionamide] | 440 | 3780 |
| CC(C)CNC(=O)CN1CCC(N(C(C)C)S(=O)(=O)c2cccc(C(F)(F)F)c2)CC1 [Compound 34, N-Isobutyl-2-{4-[isopropyl-(3-trifluoromethylbenzenesulfonyl)amino]-piperidin-1-yl}-acetamide] | 320 | 9080 |
| CCN(CC)C(=O)CN1CCC(N(C2CC2)S(=O)(=O)c2cccc(C(F)(F)F)c2)CC1 [Compound 38, 2-{4-[Cyclopropyl-(3-trifluoromethylbenzenesulfonyl)amino]-piperidin-1-yl}-N,N-diethylacetamide] | 840 | 3260 |
| Cc1ccccc1NC(=O)CN1CCC(N(C(C)C)S(=O)(=O)c2cccc(C(F)(F)F)c2)CC1 [Compound 42b, 2-{4-[Isopropyl-(3-trifluoromethylbenzenesulfonyl)amino]-piperidin-1-yl}-N-o-tolyl-acetamide] | 460 | 3230 |
| CCOc1ccccc1NC(=O)CN1CCC(N(C(C)C)S(=O)(=O)c2cccc(C(F)(F)F)c2)CC1 [Compound 42c, N-(2-Ethoxyphenyl)-2-{4-[isopropyl-(3-trifluoromethylbenzenesulfonyl)amino]-piperidin-1-yl}-acetamide] | 110 | 9540 |
| Cc1cccc(NC(=O)CN2CCC(N(C(C)C)S(=O)(=O)c3cccc(C(F)(F)F)c3)CC2)c1 [Compound 42d, 2-{4-[Isopropyl-(3-trifluoromethylbenzenesulfonyl)amino]-piperidin-1-yl}-N-m-tolyl-acetamide] | 450 | > 20000 |
| CC(C)c1ccc(NC(=O)CN2CCC(N(C(C)C)S(=O)(=O)c3cccc(C(F)(F)F)c3)CC2)cc1 [Compound 42f, N-(4-Isopropylphenyl)-2-{4-[isopropyl-(3-trifluoromethylbenzenesulfonyl)amino]-piperidin-1-yl}-acetamide] | 630 | > 20000 |
| CC(C)N(C1CCN(CC(=O)Nc2ccc(C#N)cc2)CC1)S(=O)(=O)c1cccc(C(F)(F)F)c1 [Compound 42g, N-(4-Cyanophenyl)-2-{4-[isopropyl-(3-trifluoromethylbenzenesulfonyl)amino]-piperidin-1-yl}-acetamide] | 180 | 2510 |
| COc1ccc(NC(=O)CN2CCC(N(C(C)C)S(=O)(=O)c3cccc(C(F)(F)F)c3)CC2)cc1 [Compound 42h, 2-{4-[isopropyl-(3-trifluoromethylbenzenesulfonyl)amino]-piperidin-1-yl}-N-(4-methoxyphenyl)acetamide] | 460 | 5320 |
| CC(C)N(C1CCN(CC(=O)Nc2nc3ccc(F)cc3s2)CC1)S(=O)(=O)c1cccc(C(F)(F)F)c1 [Compound 42i, N-(6-Fluorobenzothiazol-2-yl)-2-{4-[isopropyl-(3-trifluoromethylbenzenesulfonyl)amino]-piperidin-1-yl}-acetamide] | 670 | > 20000 |

Now from value to compound:

| IC50 [1] [nM] | IC50 [2] [nM] | Structure (SMILES) |
| --- | --- | --- |
| 330 | > 20000 | CC(C)N(C1CCN(CC(=O)N(C)c2ccc(F)cc2)CC1)S(=O)(=O)c1cccc(C(F)(F)F)c1 [Compound 42j, N-(4-Fluorophenyl)-2-{4-[isopropyl-(3-trifluoromethyl-benzenesulfonyl)amino]-piperidin-1-yl}-N-methyl-acetamide] |
| 330 | 4160 | CC(C)N(C1CCN(CC(=O)NCc2ccc(F)cc2)CC1)S(=O)(=O)c1cccc(C(F)(F)F)c1 [Compound 42k, N-(4-Fluorobenzyl)-2-{4-[isopropyl-(3-trifluoromethylbenzenesulfonyl)amino]-piperidin-1-yl}-acetamide] |
| 250 | > 20000 | CC(C)N(C1CCN(CC(=O)Nc2ccc(OC(F)(F)F)cc2)CC1)S(=O)(=O)c1cccc(C(F)(F)F)c1 [Compound 42l, 2-{4-[Isopropyl-(3-trifluoromethylbenzenesulfonyl)amino]-piperidin-1-yl}-N-(4-trifluoromethoxyphenyl)-acetamide] |
| 410 | > 20000 | CC(C)N(C1CCN(CC(=O)Nc2ccc(C(F)(F)F)cn2)CC1)S(=O)(=O)c1cccc(C(F)(F)F)c1 [Compound 42m, 2-{4-[Isopropyl-(3-trifluoromethylbenzenesulfonyl)amino]-piperidin-1-yl}-N-(5-trifluoromethylpyridin-2-yl)-acetamide] |
| 280 | 2680 | CC(C)N(C1CCN(CC(=O)Nc2ccc(F)cc2)CC1)S(=O)(=O)c1cccc(C(F)(F)F)c1 [Compound 44, N-(4-Fluorophenyl)-2-{4-[isopropyl-(3-trifluoromethylbenzenesulfonyl)amino]-piperidin-1-yl}-acetamide] |
| 840 | 10000 to 20000 | O=C(CN1CCC(N(C2CC2)S(=O)(=O)c2cccc(Cl)c2)CC1)Nc1ccc(F)cc1 [Compound 50, 2-{4-[(3-Chlorobenzenesulfonyl)cyclopropylamino]-piperidin-1-yl}-N-(4-fluorophenyl)acetamide] |
| 700 | > 20000 | CN(C1CCN(CC(=O)Nc2ccc(F)cc2)CC1)S(=O)(=O)c1cccc(C(F)(F)F)c1 [Compound 51, N-(4-Fluorophenyl)-2-{4-[methyl-(3-trifluoromethylbenzenesulfonyl)-amino]-piperidin-1-yl}-acetamide] |
| 540 | > 20000 | CCOC(=O)c1ccc(NC(=O)CN2CCC(N(C3CC3)S(=O)(=O)c3cccc(C(F)(F)F)c3)CC2)cc1 [Compound 54, 4-(2-{4-[Cyclopropyl-(3-trifluoromethylbenzenesulfonyl)amino]-piperidin-1-yl}-acetylamino)benzoic acid ethyl ester] |
| 720 | > 20000 | O=C(CN1CCC(N(C2CC2)S(=O)(=O)c2cccc(C(F)(F)F)c2)CC1)Nc1ccc(C(F)(F)F)cc1 [Compound 55, 2-{4-[Cyclopropyl-(3-trifluoromethylbenzenesulfonyl)amino]-piperidin-1-yl}-N-(4-trifluoromethylphenyl)acetamide] |
| 760 | > 20000 | CC(C)(C)c1ccc(NC(=O)CN2CCC(N(C3CC3)S(=O)(=O)c3cccc(C(F)(F)F)c3)CC2)cc1 [Compound 56] |
| 530 | > 20000 | O=C(CN1CCC(N(C2CC2)S(=O)(=O)c2cccc(C(F)(F)F)c2)CC1)Nc1ccccc1 [Compound 57, 2-{4-[Cyclopropyl-(3-trifluoromethylbenzenesulfonyl)-amino]-piperidin-1-yl}-N-phenyl-acetamide] |
